This note sets out measurements from patent US20050260637A1, “Drug screening” (priority 2004, published 2005).

Read-outs that look alike come from different tables or passages of the source.

One assay concerns the target T1, human RNR (Homo sapiens, UniProt P23921).
T1 sequence (P23921 1-792): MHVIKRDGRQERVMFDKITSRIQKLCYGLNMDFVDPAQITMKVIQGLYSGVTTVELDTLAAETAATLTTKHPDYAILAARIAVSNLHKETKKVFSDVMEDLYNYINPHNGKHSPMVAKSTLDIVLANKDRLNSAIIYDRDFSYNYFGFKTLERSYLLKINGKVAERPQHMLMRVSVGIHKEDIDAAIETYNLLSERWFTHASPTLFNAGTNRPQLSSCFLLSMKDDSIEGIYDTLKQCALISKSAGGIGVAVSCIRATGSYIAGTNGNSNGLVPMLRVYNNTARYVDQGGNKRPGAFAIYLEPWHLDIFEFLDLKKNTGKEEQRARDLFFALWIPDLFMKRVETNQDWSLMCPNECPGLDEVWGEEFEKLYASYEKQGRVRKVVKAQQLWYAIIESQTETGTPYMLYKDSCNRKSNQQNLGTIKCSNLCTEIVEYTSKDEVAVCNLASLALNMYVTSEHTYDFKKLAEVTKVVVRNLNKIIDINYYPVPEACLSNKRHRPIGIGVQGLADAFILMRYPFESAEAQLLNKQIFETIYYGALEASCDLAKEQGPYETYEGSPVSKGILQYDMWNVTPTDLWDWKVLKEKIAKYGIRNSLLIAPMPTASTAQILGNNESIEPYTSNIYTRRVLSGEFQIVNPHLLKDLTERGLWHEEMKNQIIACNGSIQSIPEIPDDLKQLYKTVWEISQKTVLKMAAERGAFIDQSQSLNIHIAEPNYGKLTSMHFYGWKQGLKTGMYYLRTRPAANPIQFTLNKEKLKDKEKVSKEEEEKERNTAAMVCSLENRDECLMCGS
Put plainly: C-terminal RRM2 peptide added to the enzyme in vitro. Format: biochemical. The note with it: added in vitro at a ratio of 10:1 (peptide:enzyme). The source says: Also within the scope of this invention is a pharmaceutical composition that contains (1) an active agent, e.g., one of the above-descried antibodies, RNR mutant subunits, RNAi agents, or compounds identified to be RNR inhibitors; and (2) a pharmaceutically acceptable carrier and. Other active agents that can be used include an antisense oligonucleotide and a peptide or polypeptide containing an amino acid sequence at the C-terminus of RRM2. […] It was further observed that a truncated form of the M2 subunit, lacking these 7 amino acids at the C-terminus, fails to form a complex with the corresponding large subunit M1. […] Such peptides or polypeptides can be generated and used according to the methods described above or any other methods well known in the art. The efficacy of the pharmaceutical composition for treating a cell proliferation-associated disorder can be preliminarily evaluated in vitro. For in vivo studies, the composition can be injected into an animal and its therapeutic effects are then accessed.

The target in assay [1] is T2, M2/M1 (hRRM2 and hRRM1 reconstituted RNR) (Homo sapiens, UniProt P31350).
T2 construct: 6xHis; made in house
T2 sequence (P31350 1-389): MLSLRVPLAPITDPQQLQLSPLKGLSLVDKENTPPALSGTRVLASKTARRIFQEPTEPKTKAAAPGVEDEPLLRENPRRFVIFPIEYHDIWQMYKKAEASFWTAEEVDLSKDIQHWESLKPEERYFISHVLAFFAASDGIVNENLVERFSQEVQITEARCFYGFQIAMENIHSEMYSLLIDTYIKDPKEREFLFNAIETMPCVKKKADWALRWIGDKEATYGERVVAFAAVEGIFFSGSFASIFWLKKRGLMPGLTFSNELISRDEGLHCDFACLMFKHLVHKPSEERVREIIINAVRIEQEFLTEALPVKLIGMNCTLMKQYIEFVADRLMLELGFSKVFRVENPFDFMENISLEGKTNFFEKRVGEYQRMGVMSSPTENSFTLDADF
Put plainly: In vitro RNR activity assay with reconstituted hRRM2/hRRM1 ([3H]CDP reduction). Format: biochemical. The following applies: read-out: In vitro RR activity (IC50 ± sd) M2/M1. How it is done:
(§1) To reconstitute an active RNR, three 6′His-tag human RNR subunit proteins (hRRM2, p53R2, and hRRM1) were prokaryotically expressed, purified using Ni-resin affinity chromatography, and stored in 50 mM Tris-HCl, pH 7.4, 100 mM KCl at −70° C. according to standard techniques. The purified proteins were subjected to SDS-PAGE analysis. […] To reconstitute RNR, 1 μM of hRRM2 or p53R2 protein was incubated with 0.5 μM hRRM1 protein in multiple-well plates. The reconstitute RNR was tested for RNR activity according to standard techniques.
(§2) Each compound of various concentration was mixed with the purified hRRM2 and hRRM1, or p53R2 and hRRM1 at room temperature for 30 minutes. An enzymatic reaction buffer was then added to the mixture to reach a final volume of 100 μl and incubated at 37° C. for 30 minutes. The reaction buffer contained […] [^3H] CDP, 50 mM HEPES pH 7.2,6 mM DTT, 4 mM MgOAC, 2 mM ATP, 0.05 mM CDP, 100 mM KCl, and 0.24 mM NADPH. […] FeCl3 could be added to the buffer as an iron source. After dephosphorylation, the supernatant of each reaction mixture was analyzed by an HPLC-connected radioactivity detector. IC50 values were calculated by the non-linear regression equations: f (x)=(a-d)/[1+(x/c)^b]+d.

Assay [2] concerns the target T3, p53R2/M1 (p53R2 and hRRM1 reconstituted RNR) (Homo sapiens, UniProt Q7LG56).
T3 construct: 6xHis; made in house
T3 sequence (Q7LG56 1-351): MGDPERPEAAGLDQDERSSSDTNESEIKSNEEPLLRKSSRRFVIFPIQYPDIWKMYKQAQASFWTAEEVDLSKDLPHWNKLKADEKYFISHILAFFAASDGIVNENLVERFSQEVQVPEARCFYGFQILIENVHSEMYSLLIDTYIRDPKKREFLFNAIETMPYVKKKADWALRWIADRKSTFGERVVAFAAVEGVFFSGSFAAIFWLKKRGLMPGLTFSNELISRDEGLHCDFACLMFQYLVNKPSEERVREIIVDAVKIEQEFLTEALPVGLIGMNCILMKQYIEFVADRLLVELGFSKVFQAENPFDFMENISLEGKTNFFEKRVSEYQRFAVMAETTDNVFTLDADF
Nature of the assay: In vitro RNR activity assay with reconstituted p53R2/hRRM1 ([3H]CDP reduction). It counts as biochemical. The following applies: read-out: In vitro RR activity (IC50 ± sd) p53R2/M1. The protocol: as §1, §2

The subject of assay [3] is RNR containing hRRM2 or p53R2. Nature of the assay: In vitro RNR activity assay, both reconstituted RNRs compared (average, selective index, comparison in words). The note with it: for Selective index: M2/M1 versus p53R2/M1. It counts as biochemical, human. How it is done: as §1, §2
(§3) The above-described four SB-HSCs were tested for their inhibitory potency and subunit-selectivity by the in vitro RNR assay in the same manner descried above. The dose-dependent inhibition curves were found.

The test system of assay [4] is T4, RNR containing hRRM2 or p53R2.
T4 construct: In vitro RR activity (IC50) Average; other: compound in 1% DMSO; average of M2/M1 and p53R2/M1; other: compound in 2.5% DMSO; other: compound in dH2O + FeCl3; other: compound in dH2O; Inhi; fused on or other part: 6xHis tag on each subunit
Described as above. It counts as biochemical, human. The following applies: average of M2/M1 and p53R2/M1, read-out: In vitro RR activity (IC50) Average. The protocol: as §1, §2, §3

Assay [5] in a line: Standard cell-based assay. The note with it: read-out: Cell-based assay (IC50 ± sd).

In the case of “FTLDADF [7-amino acid peptide (FTLDADF) at the C-terminus of RRM2]”, the “Suppression of human RNR activity” value in the assay with human RNR is recorded as “dramatically suppress the human RNR activity”.

As for `O=C(NO)NN=Cc1ccc([N+](=O)[O-])s1` [SB-HSC24], the IC50 was found to be 52 ± 2.03 µM in assay [1] (compound in 2.5% DMSO), 11.5 ± 0.6 µM in assay [2] (compound in 2.5% DMSO), 31.7 µM in assay [4] (compound in 2.5% DMSO) and 10.6 ± 0.3 µM in assay [5]. Moreover, the “Small subunit selectivity of RNR inhibition (in words)” value in assay [3] was “significantly more efficient in inactivating p53R2”. Besides, in assay [3] (compound in 2.5% DMSO), the Selective index turned out to be 4.53.

As for `O=C(NO)NN=Cc1ccc(O)c(O)c1O` [SB-HSC21], the IC50 amounted to 11.5 ± 0.63 µM in assay [1] (compound in 1% DMSO), 13.6 ± 0.7 µM in assay [2] (compound in 1% DMSO), 12.5 µM in assay [4] (compound in 1% DMSO) and 2.7 ± 0.6 µM in assay [5]. Further, the “Small subunit selectivity of RNR inhibition (in words)” value in assay [3] was “almost the same inhibitory activities on both small subunits”. Also, the Selective index in assay [3] (compound in 1% DMSO) was 0.85.

`O=C(NO)NN=Cc1cc(Cl)cc(Cl)c1O` [SB-HSC2]: the IC50 in assay [1] (compound in 2.5% DMSO) stood at 111 ± 6.64 µM; in assay [2] (compound in 2.5% DMSO), 30.6 ± 1.62 µM; in assay [4] (compound in 2.5% DMSO), 70.7 µM; in assay [5] it was 6.5 ± 0.6 µM. Besides, the “Small subunit selectivity of RNR inhibition (in words)” value in assay [3] is given as “significantly more efficient in inactivating p53R2”. Besides, in assay [3] (compound in 2.5% DMSO), the Selective index was found to be 3.62.

`Cc1c2ccccc2c(C=NNC(=O)NO)c2ccccc12` [SB-HSC29]: the IC50 in assay [1] (compound in 2.5% DMSO) was greater than 250 µM; in assay [2] (compound in 2.5% DMSO), greater than 250 µM; in assay [4] (compound in 2.5% DMSO) it was greater than 250 µM; in assay [5], 4.4 µM.
